Patent US10004732B2 (Novartis AG, priority 2014, dated 2018)

Key:
PI 3-kinase gamma [1] = biological target: T1, PI 3-kinase gamma (Homo sapiens, UniProt P48736); experiment: Cellular U937 AKT assay K1 (MSD); assay type: cell-based; settings: U937 cells, K1 format; read-out: Assay K1 PI3Kγ IC50
PI 3-kinase alpha [2] = biological target: T2, PI 3-kinase alpha (Homo sapiens, UniProt P42336); experiment: Cellular assay H1, p-Akt (S473) in Rat-1 cells, Surefire format; assay type: cell-based; settings: non-asterisked data: version H1 (Surefire format), Rat-1 cells; read-out: Assay H PI3Kα IC50
Source text: Cellular Assays for PI 3-Kinase Alpha (H1), Beta (I1) and Delta (J1): Surefire Format
AlphaScreen (Amplified Luminescent Proximity Homogeneous Assay, ALPHA, Perkin Elmer) is a non-radioactive bead-based proximity assay technology to study biomolecular interactions in a homogenous microtiter plate format. The brand name SureFire denotes AlphaScreen assays that are adapted to quantify the phosphorylation of endogenous cellular proteins in cell lysates, by using matched antibody pairs, which consist of an anti-phospho-kinase and an anti-kinase antibody. The assay allows characterization of kinase signaling in cells as well as measurement of kinase inhibitor effects.
Using Rat-1 cells stably expressing myr-HA-tagged versions of the human PI3Kdelta, PI3Kalpha, or PI3Kbeta p110 catalytic subunit isoforms, the assay was developed as a two-plate protocol in a 384-well format.
For compound testing, the cells were seeded at a density of 4000 (Rat-1_PI3Kdelta), 7500 (Rat-1_PI3Kalpha), or 6200 (Rat-1_PI3Kbeta) cells in 20 μl complete growth medium into cell culture treated 384-well plates and were grown at 37° C./5% CO2/90% humidity for 24 h. Shortly before compound transfer, the complete medium was removed, 30 μl assay buffer (DMEM high glucose, 1×MEM NEAA, 10 mM HEPES, 2 mM L-glutamine, 0.1% (w/v) BSA) was added and 10 μl of the compound predilutions were transferred to the cells.

PI 3-kinase delta [3] = biological target: T3, PI 3-kinase delta (Homo sapiens, UniProt O00329); experiment: Cellular assay J1, p-Akt (S473) in Rat-1 cells, Surefire format; assay type: cell-based; settings: non-asterisked data: version J1 (Surefire format), Rat-1 cells; read-out: Assay J PI3Kδ IC50
Target sequence in this assay (O00329 whole entry): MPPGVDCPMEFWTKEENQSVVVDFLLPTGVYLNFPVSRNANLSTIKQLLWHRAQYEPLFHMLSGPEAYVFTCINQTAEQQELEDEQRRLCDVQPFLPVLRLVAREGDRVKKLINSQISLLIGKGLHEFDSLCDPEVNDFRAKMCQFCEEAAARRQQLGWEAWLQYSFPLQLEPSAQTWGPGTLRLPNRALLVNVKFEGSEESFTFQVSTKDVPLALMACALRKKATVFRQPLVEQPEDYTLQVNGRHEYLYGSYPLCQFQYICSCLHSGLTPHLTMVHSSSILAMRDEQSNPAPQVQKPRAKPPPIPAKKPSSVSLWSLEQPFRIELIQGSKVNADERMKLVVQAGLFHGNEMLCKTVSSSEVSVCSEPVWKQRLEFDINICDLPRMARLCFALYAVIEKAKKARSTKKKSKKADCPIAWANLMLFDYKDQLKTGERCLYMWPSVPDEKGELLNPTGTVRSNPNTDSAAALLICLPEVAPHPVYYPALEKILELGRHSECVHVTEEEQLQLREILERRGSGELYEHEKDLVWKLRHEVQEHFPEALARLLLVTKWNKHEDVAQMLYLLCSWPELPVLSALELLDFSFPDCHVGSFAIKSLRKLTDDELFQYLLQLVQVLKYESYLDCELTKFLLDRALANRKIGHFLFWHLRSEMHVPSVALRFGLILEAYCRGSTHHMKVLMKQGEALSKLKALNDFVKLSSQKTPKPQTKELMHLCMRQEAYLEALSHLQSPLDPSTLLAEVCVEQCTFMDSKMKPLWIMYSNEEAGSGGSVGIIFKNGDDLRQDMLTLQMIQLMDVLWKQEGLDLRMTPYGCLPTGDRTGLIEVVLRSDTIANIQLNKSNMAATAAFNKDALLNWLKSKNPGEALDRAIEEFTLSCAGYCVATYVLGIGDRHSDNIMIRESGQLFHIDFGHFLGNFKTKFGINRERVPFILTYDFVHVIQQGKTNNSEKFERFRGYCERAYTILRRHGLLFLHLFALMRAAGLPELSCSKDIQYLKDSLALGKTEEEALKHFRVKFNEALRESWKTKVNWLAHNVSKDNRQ
Target sequence in this assay (Q63787 whole entry partner): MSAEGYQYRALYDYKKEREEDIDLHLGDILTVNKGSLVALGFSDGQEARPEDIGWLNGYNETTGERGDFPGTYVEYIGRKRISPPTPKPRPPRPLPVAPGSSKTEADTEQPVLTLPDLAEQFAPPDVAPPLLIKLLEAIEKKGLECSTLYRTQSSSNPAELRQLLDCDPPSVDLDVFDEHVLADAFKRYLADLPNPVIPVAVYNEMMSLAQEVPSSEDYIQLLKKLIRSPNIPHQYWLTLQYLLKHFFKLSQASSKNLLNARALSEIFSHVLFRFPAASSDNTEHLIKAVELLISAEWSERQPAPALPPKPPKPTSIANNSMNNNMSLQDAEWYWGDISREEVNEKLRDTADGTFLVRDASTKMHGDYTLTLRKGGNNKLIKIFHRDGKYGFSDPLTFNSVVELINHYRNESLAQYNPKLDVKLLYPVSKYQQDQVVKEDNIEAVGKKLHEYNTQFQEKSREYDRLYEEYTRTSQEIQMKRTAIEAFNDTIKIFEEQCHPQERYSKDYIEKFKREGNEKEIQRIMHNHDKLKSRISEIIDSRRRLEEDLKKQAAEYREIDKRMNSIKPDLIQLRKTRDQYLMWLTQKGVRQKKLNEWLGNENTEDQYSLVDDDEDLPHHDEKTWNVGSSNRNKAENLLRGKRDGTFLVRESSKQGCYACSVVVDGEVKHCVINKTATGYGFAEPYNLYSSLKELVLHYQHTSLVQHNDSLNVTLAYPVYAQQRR

PI 4-kinase beta = PI 4-kinase beta (Homo sapiens, UniProt Q9UBF8); experiment: Kinase Glo Luminescent Kinase Assay (Kglo), assay D; assay type: biochemical; settings: read-out: Assay D PI4Kβ IC50
Chain of PI 4-kinase beta (Q9UBF8 whole entry): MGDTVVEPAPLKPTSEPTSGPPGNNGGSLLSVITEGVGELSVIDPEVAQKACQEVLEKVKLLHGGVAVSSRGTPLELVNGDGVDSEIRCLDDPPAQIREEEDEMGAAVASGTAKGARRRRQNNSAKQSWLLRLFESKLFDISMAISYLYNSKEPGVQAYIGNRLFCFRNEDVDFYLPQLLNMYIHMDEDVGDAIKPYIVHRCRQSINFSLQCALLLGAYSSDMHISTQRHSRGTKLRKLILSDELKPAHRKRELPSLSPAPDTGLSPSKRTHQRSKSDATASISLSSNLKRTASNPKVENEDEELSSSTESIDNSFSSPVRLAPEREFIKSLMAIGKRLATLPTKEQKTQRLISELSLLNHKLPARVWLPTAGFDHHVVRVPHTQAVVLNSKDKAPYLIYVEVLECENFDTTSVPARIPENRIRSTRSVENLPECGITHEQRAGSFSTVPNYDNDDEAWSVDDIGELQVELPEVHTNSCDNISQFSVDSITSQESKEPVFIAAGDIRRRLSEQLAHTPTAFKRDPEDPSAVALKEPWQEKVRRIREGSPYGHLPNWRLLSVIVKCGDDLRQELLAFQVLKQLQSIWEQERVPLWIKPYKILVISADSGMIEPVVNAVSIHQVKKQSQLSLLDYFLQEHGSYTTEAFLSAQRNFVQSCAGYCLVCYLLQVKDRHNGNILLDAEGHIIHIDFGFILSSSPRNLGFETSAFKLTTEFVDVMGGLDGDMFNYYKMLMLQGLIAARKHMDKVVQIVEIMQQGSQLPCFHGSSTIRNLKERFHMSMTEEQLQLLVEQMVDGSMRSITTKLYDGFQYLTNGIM

PI 3-kinase alpha [4] = biological target: T2, PI 3-kinase alpha; experiment: Kinase Glo Luminescent Kinase Assay (Kglo), assay A; assay type: biochemical; settings: read-out: Assay A PI3Kα IC50
Procedure: Kinase Glo Luminescent Kinase Assay (Kglo) for Pb 3-Kinase Alpha (A), Pb 3-Kinase Beta (B), Vps34 (C), Pb 4-Kinase Beta (D)
The Kinase Glo Luminescent Kinase Assay (Promega, Madison/Wis., USA) is a homogeneous HTS method of measuring kinase activity by quantifying the amount of ATP remaining in solution following a kinase reaction.
L-α-phosphatidylinositol (PI), provided as 10 mg/ml solution in methanol, was transferred into a glass tube and dried under a nitrogen beam. It was then resuspended in 3% OctylGlucoside (1-0-n-octyl-beta-D-glucopyranoside) by vortexing and stored at 4° C. 5 μL of a mix of PI/OctylGlucoside with the PI 3-kinase alpha and PI 3-kinase beta subtypes, or Vps34 or PI 4-kinase beta were added. Kinase reactions were started by the addition of 5 μl of an ATP-mix containing in a final volume 10 μL 10 mM TRIS-HCl pH 7.5, 3 mM MgCl2, 50 mM NaCl, 0.05% CHAPS, 1 mM DTT and 1 μM ATP at room temperature.
All fits were performed with the program XLfit4 (ID Business Solutions, Guildford, UK).

PI 3-kinase gamma [5] = biological target: T1, PI 3-kinase gamma; experiment: TR-FRET Adapta assay, assay E; assay type: biochemical; settings: read-out: Assay E PI3Kγ IC50
PI 3-kinase delta [6] = biological target: T3, PI 3-kinase delta; experiment: TR-FRET Adapta assay, assay F; settings: read-out: Assay F PI3Kδ IC50
Target sequence in this assay (O00329 whole entry): as the sequence (O00329 whole entry) above
Target sequence in this assay (P27986 461-568 partner): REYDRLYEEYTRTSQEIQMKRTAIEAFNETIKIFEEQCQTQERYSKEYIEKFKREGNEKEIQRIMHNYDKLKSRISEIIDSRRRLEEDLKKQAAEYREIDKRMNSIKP
Procedure: TR-FRET Adapta Assay for PI 3-Kinase Gamma (E), PI 3-Kinase Delta (F)
The TR-FRET Adapta™ Universal Kinase Assay Kit was purchased from Invitrogen Corporation (Carlsbad/CA, USA) (Cat. No. PV5099).
PIK3CD substrate phosphatidylinositol (PI) was obtained from Invitrogen (vesicules consisting of 2 mM phosphatidylinositol (PI) in 50 mM HEPES pH7.5; Cat. No. PV5371). PIK3CG substrate phosphatidylinositol-4,5-bisphosphate (PIP(4,5)2 was obtained from Invitrogen (PIP2:PS large unilamellar vesicules consisting of 1 mM PIP2: 19 mM PS in 50 mM HEPES pH7.5, 3 mM MgCl2, 1 mM EGTA; Cat. No. PV5100).
Time-Resolved Fluorescence Resonance Energy Transfer (TR-FRET) is a technology based on energy transfer between two adjacent dyes, from an excited electron in one dye (the donor) to an electron of an adjacent dye (the acceptor) through resonance, then released as a photon. This energy transfer is detected by an increase in the fluorescence emission of the acceptor, and a decrease in the fluorescence emission of the donor. TR-FRET assays for protein kinases use a long-lifetime lanthanide Terbium or Europium chelates as the donor species which overcome interference from compound autofluorescence or light scatter from precipitated compounds, by introducing a delay after excitation by a flashlamp excitation source. Results are often expressed as a ratio of the intensities of the acceptor and donor fluorophores. The ratiometric nature of such a value corrects for differences in assay volumes between wells, as well as corrects for quenching effects due to colored compounds. The Adapta™ assay can be divided into two phases: a kinase reaction phase and an ADP detection phase. In the kinase reaction phase, all kinase reaction components are added to the well and the reaction is allowed to incubate for a set period of time specific for each kinase. […] In the presence of an inhibitor, the amount of ADP formed by the kinase reaction is reduced, and the resulting intact antibody-tracer interaction maintains a high TR-FRET signal.
50 nL of compound dilutions were dispensed onto white 384-well small volume polystyrene plate. Then 5 μL of either PI 3-kinase gamma or PI 3-kinase delta and lipid substrate (PI or PIP2:PS) followed by 5 μL of ATP (final assay volume 10 μL) are incubated at RT. The standard reaction buffer for the Adapta™ TR-FRET assay contained 10 mM Tris-HCl pH 7.5, 3 mM MgCl2, 50 mM NaCl, 1 mM DTT, 0.05% CHAPS 3-[(3-cholamidopropyl)dimethylammonio]-1-propanesulfonate).
Data are analyzed using Excel fit software or Graphpad Prism. IC50 values were derived by fitting a sigmoidal dose-response curve to a plot of assay readout over inhibitor concentration. All fits were performed with the program XLfit4 (ID Business Solutions, Guildford, UK). […] All fits were performed with the program XLfit4 (ID Business Solutions, Guildford, UK).

PI 3-kinase beta [7] = biological target: T4, PI 3-kinase beta (Homo sapiens, UniProt P42338); experiment: Cellular assay I1, p-Akt (S473) in Rat-1 cells, Surefire format; assay type: cell-based; settings: non-asterisked data: version I1 (Surefire format), Rat-1 cells; read-out: Assay I PI3Kβ IC50
Target sequence in this assay (P42338 whole entry): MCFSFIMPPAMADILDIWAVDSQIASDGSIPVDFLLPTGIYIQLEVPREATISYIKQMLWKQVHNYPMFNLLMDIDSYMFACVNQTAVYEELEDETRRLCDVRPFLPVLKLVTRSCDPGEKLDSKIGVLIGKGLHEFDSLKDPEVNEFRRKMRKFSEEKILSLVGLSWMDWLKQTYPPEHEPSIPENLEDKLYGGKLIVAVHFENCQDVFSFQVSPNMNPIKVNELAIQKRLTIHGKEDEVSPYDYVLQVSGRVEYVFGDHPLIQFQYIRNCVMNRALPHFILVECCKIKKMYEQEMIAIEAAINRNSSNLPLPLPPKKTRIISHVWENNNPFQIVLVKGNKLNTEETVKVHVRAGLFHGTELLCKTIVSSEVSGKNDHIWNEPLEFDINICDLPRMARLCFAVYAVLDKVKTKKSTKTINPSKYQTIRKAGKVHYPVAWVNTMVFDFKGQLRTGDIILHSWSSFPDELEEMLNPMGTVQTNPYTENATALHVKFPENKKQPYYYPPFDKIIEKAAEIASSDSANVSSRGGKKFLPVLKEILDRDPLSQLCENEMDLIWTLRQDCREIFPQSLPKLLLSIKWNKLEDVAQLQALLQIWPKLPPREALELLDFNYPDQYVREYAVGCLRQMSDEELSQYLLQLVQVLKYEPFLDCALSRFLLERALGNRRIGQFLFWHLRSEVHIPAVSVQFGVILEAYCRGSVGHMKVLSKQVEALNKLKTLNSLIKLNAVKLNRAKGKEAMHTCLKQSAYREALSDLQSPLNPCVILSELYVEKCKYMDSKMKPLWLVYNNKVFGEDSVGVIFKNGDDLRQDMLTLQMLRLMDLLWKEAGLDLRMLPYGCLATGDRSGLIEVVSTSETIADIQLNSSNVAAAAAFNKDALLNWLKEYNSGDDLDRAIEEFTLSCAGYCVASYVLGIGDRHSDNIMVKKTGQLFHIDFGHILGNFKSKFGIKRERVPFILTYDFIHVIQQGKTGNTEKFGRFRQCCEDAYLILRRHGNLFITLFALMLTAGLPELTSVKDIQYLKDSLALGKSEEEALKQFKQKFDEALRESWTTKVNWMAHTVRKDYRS
Target sequence in this assay (Q63787 whole entry partner): as the sequence (Q63787 whole entry partner) above

[8] = Microsomal clearance assay (M); settings: intrinsic clearance in rat liver microsomes
Procedure: The experiments were performed in 96-well glass plates at 37° C. on an automated Tecan EVO platform. Test compounds at a concentration of 10 mM in pure DMSO were diluted 1:1000 in water to 10 μM. […] Reactions were initiated by the addition of 150 μL of a cofactor solution containing 2 mM NADPH.

PI 3-kinase beta [9] = biological target: T4, PI 3-kinase beta; experiment: Kinase Glo Luminescent Kinase Assay (Kglo), assay B; assay type: biochemical; settings: read-out: Assay B PI3Kβ IC50
Target sequence in this assay (P42338 whole entry): as the sequence (P42338 whole entry) above
Target sequence in this assay (P27986 461-568 partner): as the sequence (P27986 461-568 partner) above

Vps34 = Vps34 (Homo sapiens, UniProt Q8NEB9); experiment: Kinase Glo Luminescent Kinase Assay (Kglo), assay C; assay type: biochemical; settings: read-out: Assay C VPS34 IC50
mTOR = mTOR (Homo sapiens, UniProt P42345); experiment: Lanthascreen kinase binding assay, assay G; settings: read-out: Assay G mTOR IC50
Procedure: Lanthascreen™ Kinase Binding Assay for mTOR (G)
Binding of an inhibitor to the kinase competes for binding with the tracer, resulting in a loss of FRET.
50 nL of compound dilutions were dispensed onto white 384-well small volume polystyrene plate.

T1 sequence (P48736 whole entry): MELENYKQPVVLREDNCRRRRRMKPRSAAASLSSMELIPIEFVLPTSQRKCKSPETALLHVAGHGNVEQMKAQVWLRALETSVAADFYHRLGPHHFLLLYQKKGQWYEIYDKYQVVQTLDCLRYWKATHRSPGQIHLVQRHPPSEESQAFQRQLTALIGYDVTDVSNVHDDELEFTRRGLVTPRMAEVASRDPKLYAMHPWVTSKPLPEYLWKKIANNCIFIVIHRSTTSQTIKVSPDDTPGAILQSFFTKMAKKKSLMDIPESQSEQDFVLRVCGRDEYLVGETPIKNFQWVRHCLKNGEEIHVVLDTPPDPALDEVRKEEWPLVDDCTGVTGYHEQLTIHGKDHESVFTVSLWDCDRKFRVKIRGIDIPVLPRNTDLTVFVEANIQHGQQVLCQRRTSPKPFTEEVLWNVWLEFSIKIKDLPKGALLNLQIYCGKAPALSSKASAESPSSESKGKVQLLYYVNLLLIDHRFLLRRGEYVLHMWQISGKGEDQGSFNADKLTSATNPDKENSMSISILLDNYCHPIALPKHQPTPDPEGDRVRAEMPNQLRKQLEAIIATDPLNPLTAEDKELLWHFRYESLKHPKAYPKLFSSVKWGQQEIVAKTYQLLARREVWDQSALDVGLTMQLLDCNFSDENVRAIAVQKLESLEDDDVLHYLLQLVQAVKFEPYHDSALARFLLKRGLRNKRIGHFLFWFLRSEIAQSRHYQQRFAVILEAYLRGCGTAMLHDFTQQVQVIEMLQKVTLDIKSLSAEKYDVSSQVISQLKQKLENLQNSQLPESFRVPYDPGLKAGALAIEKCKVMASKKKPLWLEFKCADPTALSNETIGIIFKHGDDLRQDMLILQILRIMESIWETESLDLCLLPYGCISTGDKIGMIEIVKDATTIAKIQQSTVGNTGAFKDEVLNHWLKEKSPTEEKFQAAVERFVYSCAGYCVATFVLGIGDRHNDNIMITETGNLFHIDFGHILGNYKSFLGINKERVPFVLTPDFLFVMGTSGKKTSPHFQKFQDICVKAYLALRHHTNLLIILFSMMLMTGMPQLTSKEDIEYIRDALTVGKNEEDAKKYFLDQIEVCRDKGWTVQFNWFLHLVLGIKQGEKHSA

Cc1ccc(S(=O)(=O)NCCC(F)(F)F)cc1-c1cnc(N)c(-n2cncn2)n1 [Example 127.31]
IC50 (PI 3-kinase gamma [1]): 0.103 µM
IC50 (PI 3-kinase alpha [2]): 0.85 µM
IC50 (PI 3-kinase delta [3]): 1.05 µM
IC50 (PI 4-kinase beta): 4.87 µM
IC50 (PI 3-kinase alpha [4]): 0.19 µM
IC50 (PI 3-kinase gamma [5]): 0.067 µM
IC50 (PI 3-kinase delta [6]): 0.45 µM
IC50 (PI 3-kinase beta [7]): 1.71 µM
Assay M RLM CI(int) [8]: 192 µL/min/mg
IC50 (PI 3-kinase beta [9]): 1.55 µM
IC50 (Vps34): > 10 µM
IC50 (mTOR): 7.95 µM

COc1cc(-c2nc(-c3cc(S(=O)(=O)NCCC(C)(C)O)ccc3C)cnc2N)ccn1 [Example 119.3]
IC50 (PI 3-kinase gamma [1]): 3.64 µM
IC50 (PI 3-kinase alpha [2]): 0.49 µM
IC50 (PI 3-kinase delta [3]): 0.87 µM
IC50 (PI 4-kinase beta): 7.46 µM
IC50 (PI 3-kinase alpha [4]): 0.09 µM
IC50 (PI 3-kinase gamma [5]): 0.044 µM
IC50 (PI 3-kinase delta [6]): 0.13 µM
IC50 (PI 3-kinase beta [7]): 1.77 µM
Assay M RLM CI(int) [8]: 81 µL/min/mg
IC50 (PI 3-kinase beta [9]): 7.49 µM
IC50 (Vps34): > 9.1 µM
IC50 (mTOR): 3.7 µM

Cc1ccc(S(=O)(=O)NCCC(C)(C)O)cc1-c1cnc(N)c(-n2cnc(C(C)C)n2)n1 [Example 66, 3-(5-Amino-6-(3-isopropyl-1H-1,2,4-triazol-1-yl)pyrazin-2-yl)-N-(3-hydroxy-3-methylbutyl)-4-methylbenzenesulfonamide]
IC50 (PI 3-kinase gamma [1]): 0.109 µM
IC50 (PI 3-kinase alpha [2]): 0.99 µM
IC50 (PI 3-kinase delta [3]): 0.73 µM
IC50 (PI 4-kinase beta): 7.94 µM
IC50 (PI 3-kinase alpha [4]): 0.19 µM
IC50 (PI 3-kinase gamma [5]): 0.006 µM
IC50 (PI 3-kinase delta [6]): 0.08 µM
IC50 (PI 3-kinase beta [7]): 5.92 µM
Assay M RLM CI(int) [8]: 311 µL/min/mg
IC50 (PI 3-kinase beta [9]): > 9.1 µM
IC50 (Vps34): > 9.1 µM
IC50 (mTOR): 5.98 µM

Cc1cc(-c2nc(-c3cc(S(=O)(=O)N[C@H]4CC[C@@H](O)CC4)ccc3C)cnc2N)ccn1 [Example 76, 3-(5-Amino-6-(2-methylpyridin-4-yl)pyrazin-2-yl)-N-((1s,4s)-4-hydroxycyclohexyl)-4-methylbenzenesulfonamide]
IC50 (PI 3-kinase gamma [1]): 0.203 µM
IC50 (PI 3-kinase alpha [2]): 3.37 µM
IC50 (PI 3-kinase delta [3]): 3.52 µM
IC50 (PI 4-kinase beta): 4.47 µM
IC50 (PI 3-kinase alpha [4]): 0.18 µM
IC50 (PI 3-kinase gamma [5]): 0.064 µM
IC50 (PI 3-kinase delta [6]): 0.48 µM
IC50 (PI 3-kinase beta [7]): > 10 µM
Assay M RLM CI(int) [8]: 48 µL/min/mg
IC50 (PI 3-kinase beta [9]): 3.71 µM
IC50 (Vps34): > 9.1 µM
IC50 (mTOR): 4.19 µM

Cc1cc(Cl)c(S(=O)(=O)NCC(C)(C)O)cc1-c1cnc(N)c(-n2cncn2)n1 [Example 124, 5-(5-Amino-6-(1H-1,2,4-triazol-1-yl)pyrazin-2-yl)-2-chloro-N-(2-hydroxy-2-methylpropyl)-4-methylbenzenesulfonamide]
IC50 (PI 3-kinase gamma [1]): 0.038 µM
IC50 (PI 3-kinase alpha [2]): 0.25 µM
IC50 (PI 3-kinase delta [3]): 0.29 µM
IC50 (PI 4-kinase beta): 0.42 µM
IC50 (PI 3-kinase alpha [4]): 0.04 µM
IC50 (PI 3-kinase gamma [5]): 0.022 µM
IC50 (PI 3-kinase delta [6]): 0.16 µM
IC50 (PI 3-kinase beta [7]): 0.81 µM
Assay M RLM CI(int) [8]: 79 µL/min/mg
IC50 (PI 3-kinase beta [9]): 0.1 µM
IC50 (Vps34): > 10 µM
IC50 (mTOR): 0.71 µM

CCOc1ccc(-c2nc(-c3cc(S(=O)(=O)NCCC(C)(C)O)ccc3C)cnc2N)cn1 [Example 119.13]
IC50 (PI 3-kinase gamma [1]): > 10 µM
IC50 (PI 3-kinase alpha [2]): 2.45 µM
IC50 (PI 3-kinase delta [3]): 3.26 µM
IC50 (PI 4-kinase beta): 4.14 µM
IC50 (PI 3-kinase alpha [4]): 0.58 µM
IC50 (PI 3-kinase gamma [5]): 0.098 µM
IC50 (PI 3-kinase delta [6]): 0.45 µM
IC50 (PI 3-kinase beta [7]): 6.75 µM
Assay M RLM CI(int) [8]: 98 µL/min/mg
IC50 (PI 3-kinase beta [9]): > 9.1 µM
IC50 (Vps34): > 9.1 µM
IC50 (mTOR): > 9.1 µM

Cc1ccc(S(=O)(=O)NCCC(C)(C)O)cc1-c1cnc(N)c(-c2cnn(Cc3cccnc3)c2)n1 [Example 119.38]
IC50 (PI 3-kinase gamma [1]): 0.034 µM
IC50 (PI 3-kinase alpha [2]): 6.57 µM
IC50 (PI 3-kinase delta [3]): 1.03 µM
IC50 (PI 4-kinase beta): 6.3 µM
IC50 (PI 3-kinase alpha [4]): 0.09 µM
IC50 (PI 3-kinase gamma [5]): 0.012 µM
IC50 (PI 3-kinase delta [6]): 0.03 µM
IC50 (PI 3-kinase beta [7]): 2.21 µM
Assay M RLM CI(int) [8]: 167 µL/min/mg
IC50 (PI 3-kinase beta [9]): 3.5 µM
IC50 (Vps34): > 9.1 µM
IC50 (mTOR): 4.6 µM

Cc1ccc(S(=O)(=O)NCCC(C)(C)O)cc1-c1cnc(N)c(-c2cccnc2)n1 [Example 119.5]
IC50 (PI 3-kinase gamma [1]): 0.575 µM
IC50 (PI 3-kinase alpha [2]): 4.9 µM
IC50 (PI 3-kinase delta [3]): 4.85 µM
IC50 (PI 4-kinase beta): 8 µM
IC50 (PI 3-kinase alpha [4]): 0.75 µM
IC50 (PI 3-kinase gamma [5]): 0.082 µM
IC50 (PI 3-kinase delta [6]): 0.55 µM
IC50 (PI 3-kinase beta [7]): 1.66 µM
Assay M RLM CI(int) [8]: 118 µL/min/mg
IC50 (PI 3-kinase beta [9]): > 9.1 µM
IC50 (Vps34): > 9.1 µM
IC50 (mTOR): > 9.1 µM
